Laboratory results from US10894085B2, “System for thermotherapy treatment or prevention of antimicrobial resistant or biofilm infections” (FUNDACIÓ HOSPITAL UNIVERSITARI VALL D'HEBRON—INSTITUT DE …, priority 2016, dated 2021).
Converted amounts (≈) assume the structure as drawn. Where two headings read alike, the source gives them in different places.

Columns and labels:
Assay type in all cases: cell-based
[1] = test system: methicillin-resistant S. aureus; experiment: MIC by broth microdilution (Table 4), MRSA
Protocol: (§1) The minimum inhibitory concentration (MIC) values were determined by broth microdilution method according to “Methods for Dilution Antimicrobial Susceptibility Tests for Bacteria That Grow Aerobically: Approved Standard M7-A7. CLSI, Wayne, Pa., USA, 2006” Colistin and amikacin free drugs were evaluated to compare the efficacy of nanoparticles. MIC was evaluated in Pa46, Pa1016, Kp1, Kp4, Abl4, Ab4256, MRSA 15, MRSA 16, SE14 an SE94 strains. ATCC P. aeruginosa 27853, ATCC E. coli 25922 and ATCC A. baumannii 19606 were used as quality control.

S. epidermidis = experiment: MIC by broth microdilution (Table 4), S. epidermidis
Protocol: as §1

A. baumannii = experiment: MIC by broth microdilution (Table 4), A. baumannii
Protocol: as §1

[2] = test system: Klebsiella pneumoniae strains; experiment: Antibiotic susceptibility (CLSI category) of K. pneumoniae clinical isolates; on Antibiotic susceptibility and clinical category (CLSI breakpoint): key: S, susceptible; R, resistant; I, intermediate
[3] = test system: Pseudomonas aeruginosa strains; experiment: Susceptibility (MIC, CLSI category) of P. aeruginosa clinical isolates; on clinical category (CLSI breakpoint): key: S, susceptible; R, resistant; I, intermediate
[4] = test system: Acinetobacter baumannii isogenic strains; experiment: microbe, parasite or virus in culture; conditions: for MIC: Acinetobacter baumannii
P. aeruginosa = experiment: MIC by broth microdilution (Table 4), P. aeruginosa
Protocol: as §1

K. pneumoniea = experiment: MIC by broth microdilution (Table 4), K. pneumoniae
Protocol: as §1

[5] = strain Kp1 (XDR, CTX-M, OXA-48)
[6] = Pseudomonas aeruginosa, strain Pa46 (ST111, XDR, VIM-2), read-out: MIC
[7] = Pseudomonas aeruginosa, strain Pa54 (ST111, XDR, VIM-2), read-out: MIC
[8] = Pseudomonas aeruginosa, strain Pa1016 (ST175, XDR), read-out: MIC
[9] = read-out: MIC values, strain Abl1 (ST103)
[10] = read-out: MIC values, strain Abl4 (ST2)
[11] = read-out: MIC values, strain Abl4256 (ST38)

## colistin
[1]; strain MRSA15
  MIC: >128 µg/mL
S. epidermidis; strain SE14
  MIC: 32 to 64 µg/mL
S. epidermidis; strain SE94
  MIC: 32 µg/mL
A. baumannii; strain Ab4256
  MIC: 0.25 µg/mL
A. baumannii; strain Abl4
  MIC: 1 µg/mL
[2]; strain Kp1
  susceptibility: susceptible
[2]; [5]
  Antibiotic susceptibility and clinical category (CLSI breakpoint): S
[2]; strain Kp2
  susceptibility: susceptible
[2]; strain Kp2 (XDR, CTX-M, NDM)
  Antibiotic susceptibility and clinical category (CLSI breakpoint): S
[2]; strain Kp3
  susceptibility: susceptible
[2]; strain Kp3 (XDR, KPC)
  Antibiotic susceptibility and clinical category (CLSI breakpoint): S
[2]; strain Kp4
  susceptibility: susceptible
[2]; strain Kp4 (XDR, AmpC)
  Antibiotic susceptibility and clinical category (CLSI breakpoint): S
[3]; strain Pa46
  clinical category (CLSI breakpoint): S
  susceptibility: susceptible
[3]; strain Pa46 (ST111, XDR, VIM-2)
  MIC: 0.5 µg/mL
[3]; strain Pa54
  clinical category (CLSI breakpoint): S
  susceptibility: susceptible
[3]; strain Pa54 (ST111, XDR, VIM-2)
  MIC: 0.5 µg/mL
[3]; strain Pa1016
  clinical category (CLSI breakpoint): S
  susceptibility: susceptible
[3]; strain Pa1016 (ST175, XDR)
  MIC: 1 µg/mL
[4]; strain AbII (ST103)
  susceptibility: susceptible
[4]; strain Abl1 (ST103)
  MIC values: <=0.5 mg/L
[4]; strain Abl4 (ST2)
  MIC values: <=0.5 mg/L
  susceptibility: susceptible
[4]; strain Abl4256 (ST38)
  MIC values: 0.25 µg/mL
P. aeruginosa; strain Pa46
  MIC: 0.5 to 1 µg/mL
P. aeruginosa; strain Pa1016
  MIC: 0.5 to 1 µg/mL
K. pneumoniea; strain Kp1
  MIC: 1 µg/mL
K. pneumoniea; strain Kp4
  MIC: 0.125 to 0.25 µg/mL

## C[C@@H](O)[C@H]1C(=O)N2C(C(=O)O)=C(SCCN=CN)C[C@H]12 [IMP, imipenem]
[2]; [5]
  Antibiotic susceptibility and clinical category (CLSI breakpoint): R
[2]; strain Kp2 (XDR, CTX-M, NDM)
  Antibiotic susceptibility and clinical category (CLSI breakpoint): R
[2]; strain Kp3 (XDR, KPC)
  Antibiotic susceptibility and clinical category (CLSI breakpoint): R
[2]; strain Kp4 (XDR, AmpC)
  Antibiotic susceptibility and clinical category (CLSI breakpoint): R
[3]; [6]
  MIC: 256 µg/mL (≈ 855 µM)
[3]; [7]
  MIC: 256 µg/mL (≈ 855 µM)
[3]; [8]
  MIC: 16 µg/mL (≈ 53.4 µM)
[4]; [9]
  MIC: ≥ 16 µg/mL
[4]; [10]
  MIC: ≥ 16 µg/mL
[4]; [11]
  MIC: 64 µg/mL (≈ 214 µM)

## CC(C)(O/N=C(\C(=O)N[C@@H]1C(=O)N2C(C(=O)[O-])=C(C[n+]3ccccc3)CS[C@H]12)c1csc(N)n1)C(=O)O [CAZ, ceftazidime]
[2]; [5]
  Antibiotic susceptibility and clinical category (CLSI breakpoint): R
[2]; strain Kp2 (XDR, CTX-M, NDM)
  Antibiotic susceptibility and clinical category (CLSI breakpoint): R
[2]; strain Kp3 (XDR, KPC)
  Antibiotic susceptibility and clinical category (CLSI breakpoint): R
[2]; strain Kp4 (XDR, AmpC)
  Antibiotic susceptibility and clinical category (CLSI breakpoint): R
[4]; [9]
  MIC: ≥ 64 µg/mL
[4]; [10]
  MIC: ≥ 64 µg/mL
[4]; [11]
  MIC: < 8 µg/mL

## C[C@H]1[C@H](NC(=O)/C(=N\OC(C)(C)C(=O)O)c2csc(N)n2)C(=O)N1S(=O)(=O)O [ATM, aztreonam]
[3]; [6]
  MIC: 16 µg/mL (≈ 36.7 µM)
[3]; [7]
  MIC: 32 µg/mL (≈ 73.5 µM)
[3]; [8]
  MIC: 32 µg/mL (≈ 73.5 µM)

## C[C@@H]1O[C@@H]1P(=O)(O)O [FOS, fosfomycin]
[2]; strain Kp1
  susceptibility: susceptible
[2]; [5]
  Antibiotic susceptibility and clinical category (CLSI breakpoint): S
[2]; strain Kp2
  susceptibility: susceptible
[2]; strain Kp2 (XDR, CTX-M, NDM)
  Antibiotic susceptibility and clinical category (CLSI breakpoint): S
[2]; strain Kp3 (XDR, KPC)
  Antibiotic susceptibility and clinical category (CLSI breakpoint): R
[2]; strain Kp4 (XDR, AmpC)
  Antibiotic susceptibility and clinical category (CLSI breakpoint): R

## NC[C@H]1O[C@H](O[C@H]2[C@H](O)[C@@H](O[C@H]3O[C@H](CO)[C@@H](O)[C@H](N)[C@H]3O)[C@H](N)C[C@@H]2N)[C@H](N)C[C@@H]1O [TOB, tobramycin]
[3]; [6]
  MIC: 64 µg/mL (≈ 137 µM)
[3]; [7]
  MIC: 128 µg/mL (≈ 274 µM)
[3]; [8]
  MIC: 16 µg/mL (≈ 34.2 µM)
[3]; strain Pa46
  clinical category (CLSI breakpoint): R
[3]; strain Pa54
  clinical category (CLSI breakpoint): R
[3]; strain Pa1016
  clinical category (CLSI breakpoint): R

## C[C@H]1COc2c(N3CCN(C)CC3)c(F)cc3c(=O)c(C(=O)O)cn1c23 [LVX, levofloxacin]
[3]; [6]
  MIC: 32 µg/mL (≈ 88.6 µM)
[3]; [7]
  MIC: 32 µg/mL (≈ 88.6 µM)
[3]; [8]
  MIC: 128 µg/mL (≈ 354 µM)
[3]; strain Pa46
  clinical category (CLSI breakpoint): R
[3]; strain Pa54
  clinical category (CLSI breakpoint): R
[3]; strain Pa1016
  clinical category (CLSI breakpoint): R
[4]; [9]
  MIC: 4 µg/mL (≈ 11.1 µM)
[4]; [10]
  MIC: 4 µg/mL (≈ 11.1 µM)
[4]; [11]
  MIC: ≤ 1 µg/mL

## gentamicin
[2]; [5]
  Antibiotic susceptibility and clinical category (CLSI breakpoint): R
[2]; strain Kp2 (XDR, CTX-M, NDM)
  Antibiotic susceptibility and clinical category (CLSI breakpoint): R
[2]; strain Kp3
  susceptibility: susceptible
[2]; strain Kp3 (XDR, KPC)
  Antibiotic susceptibility and clinical category (CLSI breakpoint): S
[2]; strain Kp4 (XDR, AmpC)
  Antibiotic susceptibility and clinical category (CLSI breakpoint): R
[4]; strain Abl1 (ST103)
  MIC values: >=16 mg/L
[4]; strain Abl4 (ST2)
  MIC values: 4 µg/mL
[4]; strain Abl4256 (ST38)
  MIC values: >8 µg/mL

## C[C@@H](O)[C@H]1C(=O)N2C(C(=O)O)=C(S[C@@H]3CN[C@H](C(=O)N(C)C)C3)[C@H](C)[C@H]12 [MEM, meropenem]
[2]; [5]
  Antibiotic susceptibility and clinical category (CLSI breakpoint): R
[2]; strain Kp2 (XDR, CTX-M, NDM)
  Antibiotic susceptibility and clinical category (CLSI breakpoint): R
[2]; strain Kp3 (XDR, KPC)
  Antibiotic susceptibility and clinical category (CLSI breakpoint): R
[2]; strain Kp4 (XDR, AmpC)
  Antibiotic susceptibility and clinical category (CLSI breakpoint): R
[4]; [9]
  MIC: ≥ 16 µg/mL
[4]; [10]
  MIC: ≥ 16 µg/mL
[4]; [11]
  MIC: > 16 µg/mL

## CC1(C)S[C@@H]2[C@H](NC(=O)[C@H](N)c3ccccc3)C(=O)N2[C@H]1C(=O)O [AMP, ampicillin]
[2]; [5]
  Antibiotic susceptibility and clinical category (CLSI breakpoint): R
[2]; strain Kp2 (XDR, CTX-M, NDM)
  Antibiotic susceptibility and clinical category (CLSI breakpoint): R
[2]; strain Kp3 (XDR, KPC)
  Antibiotic susceptibility and clinical category (CLSI breakpoint): R
[2]; strain Kp4 (XDR, AmpC)
  Antibiotic susceptibility and clinical category (CLSI breakpoint): R

## CN(C)c1cc(NC(=O)CNC(C)(C)C)c(O)c2c1C[C@H]1C[C@H]3[C@H](N(C)C)C(O)=C(C(N)=O)C(=O)[C@@]3(O)C(O)=C1C2=O [TIG, tigecycline]
[4]; [9]
  MIC: 2 µg/mL (≈ 3.41 µM)
[4]; [10]
  MIC: 4 µg/mL (≈ 6.83 µM)
[4]; [11]
  MIC: 0.5 µg/mL (≈ 0.854 µM)
[4]; strain AbII (ST103)
  susceptibility: susceptible
[4]; strain Abl4 (ST2)
  susceptibility: susceptible

## CO/N=C(\C(=O)N[C@@H]1C(=O)N2C(C(=O)[O-])=C(C[N+]3(C)CCCC3)CS[C@H]12)c1csc(N)n1 [FEP, cefepime]
[2]; [5]
  Antibiotic susceptibility and clinical category (CLSI breakpoint): R
[2]; strain Kp2 (XDR, CTX-M, NDM)
  Antibiotic susceptibility and clinical category (CLSI breakpoint): R
[2]; strain Kp3 (XDR, KPC)
  Antibiotic susceptibility and clinical category (CLSI breakpoint): R
[2]; strain Kp4 (XDR, AmpC)
  Antibiotic susceptibility and clinical category (CLSI breakpoint): R
[4]; [9]
  MIC: ≥ 64 µg/mL
[4]; [10]
  MIC: ≥ 64 µg/mL
[4]; [11]
  MIC: 16 µg/mL (≈ 33.3 µM)

## NCC[C@H](O)C(=O)N[C@@H]1C[C@H](N)[C@@H](O[C@H]2O[C@H](CN)[C@@H](O)[C@H](O)[C@H]2O)[C@H](O)[C@H]1O[C@H]1O[C@H](CO)[C@@H](O)[C@H](N)[C@H]1O [Amikacin, amikacin]
[1]; Staphylococcus aureus, strain MRSA15, read-out: MIC
  MIC: 8 to 16 µg/mL (≈ 13.7 to 27.3 µM)
[1]; strain MRSA16
  MIC: 8 to 16 µg/mL
S. epidermidis; Staphylococcus epidermidis, strain SE14, read-out: MIC
  MIC: 1 to 2 µg/mL (≈ 1.71 to 3.42 µM)
S. epidermidis; Staphylococcus epidermidis, strain SE94, read-out: MIC
  MIC: 1 µg/mL (≈ 1.71 µM)
A. baumannii; Acinetobacter baumannii, strain Ab4256, read-out: MIC
  MIC: 8 µg/mL (≈ 13.7 µM)
A. baumannii; Acinetobacter baumannii, strain Abl4, read-out: MIC
  MIC: 1 µg/mL (≈ 1.71 µM)
[2]; strain Kp1
  susceptibility: susceptible
[2]; [5]
  Antibiotic susceptibility and clinical category (CLSI breakpoint): S
[2]; strain Kp2 (XDR, CTX-M, NDM)
  Antibiotic susceptibility and clinical category (CLSI breakpoint): R
[2]; strain Kp3 (XDR, KPC)
  Antibiotic susceptibility and clinical category (CLSI breakpoint): R
[2]; strain Kp4
  susceptibility: susceptible
[2]; strain Kp4 (XDR, AmpC)
  Antibiotic susceptibility and clinical category (CLSI breakpoint): S
[3]; [6]
  MIC: 16 µg/mL (≈ 27.3 µM)
[3]; [7]
  MIC: 16 µg/mL (≈ 27.3 µM)
[3]; [8]
  MIC: 2 µg/mL (≈ 3.42 µM)
[3]; strain Pa46
  clinical category (CLSI breakpoint): S
  susceptibility: susceptible
[3]; strain Pa54
  clinical category (CLSI breakpoint): S
  susceptibility: susceptible
[3]; strain Pa1016
  clinical category (CLSI breakpoint): S
  susceptibility: susceptible
[4]; [10]
  MIC: ≤ 2 µg/mL
[4]; strain Abl4 (ST2)
  susceptibility: susceptible
P. aeruginosa; Pseudomonas aeruginosa, strain Pa46, read-out: MIC
  MIC: 8 µg/mL (≈ 13.7 µM)
P. aeruginosa; Pseudomonas aeruginosa, strain Pa1016, read-out: MIC
  MIC: 0.5 µg/mL (≈ 0.854 µM)
K. pneumoniea; Klebsiella pneumoniae, strain Kp1, read-out: MIC
  MIC: 2 µg/mL (≈ 3.42 µM)
K. pneumoniea; Klebsiella pneumoniae, strain Kp4, read-out: MIC
  MIC: 1 to 2 µg/mL (≈ 1.71 to 3.42 µM)

## CCN1CCN(C(=O)N[C@@H](C(=O)N[C@@H]2C(=O)N3[C@@H]2SC(C)(C)[C@@H]3C(=O)O)c2ccccc2)C(=O)C1=O [PIP]
[4]; strain Abl1 (ST103)
  MIC values: >=128 mg/L
[4]; strain Abl4 (ST2)
  MIC values: >=128 mg/L
[4]; strain Abl4256 (ST38)
  MIC values: >64 µg/mL
